“And” between values parts separate entries of the source, which are not always exact repeats. Equal entries are not always repeated.
Settings: Liquid, Vibrating tube method

CCCCC(=O)OCC(COC(=O)CCCC)(COC(=O)CCCC)COC(=O)CCCC [pentaerythritol tetrapentanoate]
Settings | mass density
343.14 K, 22204 kPa | 994.9 kg/m3
343.14 K, 22235 kPa | 994.9 kg/m3
343.14 K, 22267 kPa | 995 kg/m3
343.14 K, 22298 kPa | 995 kg/m3
343.14 K, 22334 kPa | 995 kg/m3
343.14 K, 22365 kPa | 994.9 kg/m3
343.14 K, 22395 kPa | 994.9 kg/m3
343.14 K, 22432 kPa | 994.9 kg/m3
343.14 K, 22462 kPa | 995.1 kg/m3
343.14 K, 22494 kPa | 995 kg/m3
343.14 K, 22562 kPa | 995.1 kg/m3
343.14 K, 22594 kPa | 995 kg/m3
343.14 K, 22728 kPa | 995.2 kg/m3
343.14 K, 22766 kPa | 995.2 kg/m3
343.14 K, 22798 kPa | 995.3 kg/m3
343.14 K, 22830 kPa | 995.3 kg/m3
343.14 K, 22868 kPa | 995.3 kg/m3
343.14 K, 22901 kPa | 995.4 kg/m3
343.14 K, 22933 kPa | 995.4 kg/m3
343.14 K, 22971 kPa | 995.4 kg/m3
343.14 K, 23004 kPa | 995.4 kg/m3
343.14 K, 23038 kPa | 995.4 kg/m3
343.14 K, 23077 kPa | 995.5 kg/m3
343.14 K, 23110 kPa | 995.5 kg/m3
343.14 K, 23144 kPa | 995.4 kg/m3
343.14 K, 23177 kPa | 995.5 kg/m3
343.14 K, 23217 kPa | 995.5 kg/m3
343.14 K, 23284 kPa | 995.6 kg/m3
343.14 K, 23357 kPa | 995.6 kg/m3
343.14 K, 23391 kPa | 995.5 kg/m3
343.14 K, 23432 kPa | 995.8 kg/m3
343.14 K, 23500 kPa | 995.8 kg/m3
343.14 K, 23535 kPa | 995.9 kg/m3
343.14 K, 23577 kPa | 995.7 kg/m3
343.14 K, 23612 kPa | 995.8 kg/m3
343.14 K, 23646 kPa | 995.8 kg/m3
343.14 K, 23687 kPa | 995.8 kg/m3
343.14 K, 23722 kPa | 995.9 kg/m3
343.14 K, 23757 kPa | 995.9 kg/m3
343.14 K, 23799 kPa | 995.9 kg/m3
343.14 K, 23834 kPa | 996 kg/m3
343.14 K, 23870 kPa | 996 kg/m3
343.14 K, 23913 kPa | 996.1 kg/m3
343.14 K, 23949 kPa | 996.2 kg/m3
343.14 K, 24100 kPa | 996 kg/m3
343.14 K, 24817 kPa | 996.7 kg/m3
343.14 K, 25020 kPa | 996.6 kg/m3
343.14 K, 25061 kPa | 996.8 kg/m3
343.14 K, 25102 kPa | 996.8 kg/m3
343.14 K, 25142 kPa | 996.7 kg/m3
343.14 K, 25188 kPa | 996.9 kg/m3
343.14 K, 25228 kPa | 996.9 kg/m3
343.14 K, 25406 kPa | 996.9 kg/m3
343.14 K, 25451 kPa | 997.1 kg/m3
343.14 K, 25495 kPa | 997 kg/m3
343.14 K, 25549 kPa | 997 kg/m3
343.14 K, 25596 kPa | 997.1 kg/m3
343.14 K, 25644 kPa | 997.2 kg/m3
343.14 K, 25691 kPa | 997.1 kg/m3
343.14 K, 25745 kPa | 997.1 kg/m3
343.14 K, 25792 kPa | 997.2 kg/m3
343.14 K, 25943 kPa | 997.2 kg/m3
343.14 K, 25992 kPa | 997.3 kg/m3
343.14 K, 26041 kPa | 997.5 kg/m3
343.14 K, 26099 kPa | 997.5 kg/m3
343.14 K, 26149 kPa | 997.5 kg/m3
343.14 K, 30161 kPa | 1000.1 kg/m3
343.14 K, 32316 kPa | 1001.3 kg/m3
343.14 K, 32354 kPa | 1001.4 kg/m3
343.14 K, 32399 kPa | 1001.4 kg/m3
343.14 K, 32523 kPa | 1001.6 kg/m3
343.15 K, 106.2 kPa | 978.6 kg/m3
343.15 K, 106.4 kPa | 978.5 kg/m3 and 978.6 kg/m3
343.15 K, 106.6 kPa | 978.5 kg/m3
343.15 K, 106.7 kPa | 978.6 kg/m3
343.15 K, 106.8 kPa | 978.6 kg/m3
343.15 K, 106.9 kPa | 978.6 kg/m3
343.15 K, 107.4 kPa | 978.6 kg/m3
343.15 K, 109.5 kPa | 978.6 kg/m3
343.15 K, 114.4 kPa | 978.4 kg/m3
343.15 K, 120 kPa | 978.7 kg/m3
343.15 K, 122.2 kPa | 978.7 kg/m3
343.15 K, 125.2 kPa | 978.7 kg/m3
343.15 K, 129.2 kPa | 978.7 kg/m3
343.15 K, 133.3 kPa | 978.6 kg/m3
343.15 K, 138.9 kPa | 978.6 kg/m3
343.15 K, 146.6 kPa | 978.5 kg/m3
343.15 K, 154.5 kPa | 978.6 kg/m3
343.15 K, 164.6 kPa | 978.5 kg/m3
343.15 K, 180.1 kPa | 978.6 kg/m3
343.15 K, 197 kPa | 978.6 kg/m3
343.15 K, 217.8 kPa | 978.7 kg/m3
343.15 K, 250.8 kPa | 978.7 kg/m3
343.15 K, 286.7 kPa | 978.8 kg/m3
343.15 K, 330.1 kPa | 978.8 kg/m3
343.15 K, 380.3 kPa | 978.7 kg/m3
343.15 K, 749.2 kPa | 979 kg/m3
343.15 K, 1709.2 kPa | 979.9 kg/m3
343.15 K, 1788.2 kPa | 980 kg/m3
343.15 K, 1843.4 kPa | 979.8 kg/m3
343.15 K, 1867.5 kPa | 979.9 kg/m3
343.15 K, 1894.4 kPa | 980 kg/m3
343.15 K, 1917.3 kPa | 979.9 kg/m3
343.15 K, 1941.1 kPa | 980 kg/m3
343.15 K, 1965.4 kPa | 980.1 kg/m3
343.15 K, 1994.4 kPa | 979.9 kg/m3
343.15 K, 2019 kPa | 980.2 kg/m3
343.15 K, 2044.9 kPa | 980.2 kg/m3
343.15 K, 2075.6 kPa | 980 kg/m3
343.15 K, 2102.6 kPa | 980 kg/m3
343.15 K, 2129.9 kPa | 980.2 kg/m3
343.15 K, 2163.5 kPa | 980.2 kg/m3
343.15 K, 2193.4 kPa | 980.1 kg/m3
343.15 K, 2252.9 kPa | 980.3 kg/m3
343.15 K, 2352.8 kPa | 980.3 kg/m3
343.15 K, 2494.2 kPa | 980.5 kg/m3
343.15 K, 2573.8 kPa | 980.5 kg/m3
343.15 K, 2651 kPa | 980.7 kg/m3
343.15 K, 2698.2 kPa | 980.6 kg/m3
343.15 K, 2738.4 kPa | 980.4 kg/m3
343.15 K, 2779.7 kPa | 980.7 kg/m3
343.15 K, 2830.5 kPa | 980.7 kg/m3
343.15 K, 2972.7 kPa | 980.9 kg/m3
343.15 K, 3068.2 kPa | 981 kg/m3
343.15 K, 3117.1 kPa | 980.9 kg/m3
343.15 K, 3897.8 kPa | 981.5 kg/m3
343.15 K, 3924.9 kPa | 981.5 kg/m3
343.15 K, 3952.8 kPa | 981.6 kg/m3
343.15 K, 3986.3 kPa | 981.7 kg/m3
343.15 K, 4014.7 kPa | 981.6 kg/m3
343.15 K, 4043.6 kPa | 981.7 kg/m3
343.15 K, 4073 kPa | 981.8 kg/m3
343.15 K, 4107.7 kPa | 981.6 kg/m3
343.15 K, 4137.6 kPa | 981.7 kg/m3
343.15 K, 4168.8 kPa | 981.8 kg/m3
343.15 K, 4199.3 kPa | 981.8 kg/m3
343.15 K, 4230.1 kPa | 981.9 kg/m3
343.15 K, 4267.5 kPa | 981.9 kg/m3
343.15 K, 4299.4 kPa | 981.8 kg/m3
343.15 K, 4597.4 kPa | 982 kg/m3
343.15 K, 4629.6 kPa | 982.1 kg/m3
343.15 K, 4643.1 kPa | 982 kg/m3
343.15 K, 4660.4 kPa | 982.2 kg/m3
343.15 K, 4661.1 kPa | 982.1 kg/m3
343.15 K, 4661.7 kPa | 982.1 kg/m3
343.15 K, 4662.3 kPa | 982.1 kg/m3
343.15 K, 4662.6 kPa | 982 kg/m3
343.15 K, 4663.1 kPa | 982.2 kg/m3
343.15 K, 4754 kPa | 982 kg/m3
343.15 K, 4934.5 kPa | 982.4 kg/m3
343.15 K, 4956.5 kPa | 982.3 kg/m3
343.15 K, 4979.2 kPa | 982.3 kg/m3
343.15 K, 5005.6 kPa | 982.4 kg/m3
343.15 K, 5027.6 kPa | 982.5 kg/m3
343.15 K, 5050.1 kPa | 982.4 kg/m3
343.15 K, 5076.2 kPa | 982.3 kg/m3
343.15 K, 5120.9 kPa | 982.4 kg/m3
343.15 K, 5279.4 kPa | 982.6 kg/m3
343.15 K, 5366.4 kPa | 982.7 kg/m3
343.15 K, 5392 kPa | 982.8 kg/m3

— the NIST ThermoML archive (doi:10.1021/je060271a)
